Experimental data from patent US12139488B2, “Pyrido[3,2-d]pyrimidine compounds uses thereof for treating a proliferative disease” (Universite de Montreal, priority 2021, dated 2024).
Where two headings read alike, the source gives them in different places.

Key:
Type in all cases: cell-based, human
[1] = tested on: pERK in HCT-116 cells (KRAS G13D); assay: Phospho-ERK inhibition (AlphaLISA SureFire Ultra p-ERK 1/2), HCT116; details: for HCT116 pERK % Ymin: value in parentheses
In short: (§1)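 pERK1/2 (Thr202/Tyr204) AlphaLISA, 1 h cpd, 10 conc. 10 μM→0.33 nM, 0.5% DMSO, RPMI-1640 + 5% FBS. Trametinib = 100%, DMSO = 0%. IC50, 4-param fit.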

[2] = tested on: pERK in SW480 cells (KRAS G12D); assay: Phospho-ERK inhibition (AlphaLISA), SW480; details: for SW480 pERK % Ymin: value in parentheses
In short: as §1

[3] = tested on: pERK in HepG2 cells (NRAS-Q61L); assay: Phospho-ERK inhibition (AlphaLISA), HepG2; details: for HepG2 pERK % Ymin: HepG2, value in parentheses; for IC50: HepG2
Procedure: (§2) All cancer cell lines (A375, A101D, A2058, RKO, HT29 SK-MEL 30, IPC298, HepG2, HCT-116, Lovo, SWV620, SW480, NCI-H358, NCI-H2122, Calu-6, NCIH2087, NCIH1755, NCIH1666 and Mewo) were obtained from ATCC and cultured in RPMI-1640 medium (Gibco) supplemented with 5% heat inactivated fetal bovine serum (FBS, Wisent) at 37° C. under 5% CO2. Cells were maintained in T175 flasks (Greiner). They were passaged by removing the culture medium, washing once in 10 mL of room temperature Phosphate Buffered Saline (PBS; Wisent) and incubating at 37° C. with 2 mL of 0.05% Trypsin (Thermo-Fisher). Trypsin was then inactivated by adding complete growth medium and the cells were then replated in a T175 culture dish at the appropriate dilution. All cell lines were routinely tested for mycoplasma contamination. Tissue type and mutational status of each cell line can be found in Table B.
(§3) AlphaLISA® SureFire® Ultra™ p-ERK 1/2 (Thr202/Tyr204) analysis was conducted on cells plated in 100 μL of complete RPMI-1640 growth medium in 96-well flat-bottomed transparent dishes (Costar) at a density indicated in Table C. Cells were maintained overnight at 37° C. under 5% CO2 before treatment with compounds' dilution series for one hour. The cell density in cells/cm^2 corresponds to cell number divided by the area of one well of a 96-well plate ([…]).
(§4) In a dilution series 100 μL/well of test substance dilution prepared in complete RPMI-1640 growth media was added to the cells. The dilution series is selected so that ten concentrations cover a range from 10 μM to 0.33 nM. If necessary the initial concentration of 10 μM is increased to 100 μM or lowered to 1 μM (as in the case of A375 and H1666 cells, which are generally more sensitive to the compounds) and further dilution is carried out accordingly. The final concentration of DMSO in the assay is set at 0.5%.
(§5) After treatment, media was removed and cells were lysed in 50 μL of 1× AlphaScreen Ultra Lysis Buffer (Perkin Elmer). The AlphaLISA® SureFire® Ultra™ p-ERK 1/2 (Thr202/Tyr2O4) (PerkinElmer) reactions were performed with 5 μL of cell lysate according to the manufacturer's specifications in 384-well proxyplates (Perkin Elmer) followed by overnight incubation of the reactions at room temperature in a humidified chamber. After completion of the reactions, the signals were recorded on an EnVision plate reader (Perkin Elmer) using built in AlphaLISA® settings.
(§6) The effect of each compound dilution on the pERK signal was expressed in % inhibition and calculated as follows. An internal 100% inhibition control ([…] trametinib, cat #HY-10999; MedChem Express; CAS #871700-17-3) was included in each plate and used as a measure of pERK background. First, the value obtained for trametinib was subtracted from each data point. The average of DMSO (vehicle) controls (set as 0% inhibition) was established and used to calculate % inhibition: % inhibition=100*(1-((pERK signalcompound)/(pERK signalDMSO)))
(§7) The ability of each compound to inhibit pERK signal was expressed as an IC50 value obtained by plotting the inhibition values for each data point of a dilution series and fitting the obtained curves using a log(agonist) versus response-variable slope (four parameters) function using GraphPadPrism (V7.0) or Dotmatics Screening Ultra platform.
(§8) When present, paradoxical pERK induction is inferred from the negative % inhibition values observed in the pERK IC50 curves of a compound.

[4] = tested on: pERK in SK-MEL30 cells (NRAS-Q61K); assay: Phospho-ERK inhibition (AlphaLISA), SK-MEL30; details: for SK-MEL30 pERK % Ymin: SK-MEL30, value in parentheses
Procedure: as §2, §3, §4, §5, §6, §7, §8

[5] = tested on: pERK in NCI-H358 cells (KRAS-G12C); assay: Phospho-ERK inhibition (AlphaLISA), NCI-H358; details: for IC50: NCI-H358; for NCI-H358 pERK % Ymin: NCI-H358, value in parentheses
Procedure: as §2, §3, §4, §5, §6, §7, §8

[6] = tested on: HepG2 cells (NRAS-Q61L); assay: Proliferation inhibition (CellTiter-Glo), HepG2; details: HepG2, 3 days, read-out: HepG2 Prolif. EC50
Procedure: as §2
CellTiter-Glo® viability analysis was conducted on cells plated in 100 μL of complete RPMI-1640 growth medium in 96-well flat-bottomed white opaque plates (Greiner or Croning) at a density indicated in Table E (for each CCL, number of cells plated per well of a 96-well plate to perform the CellTiter-Glo® cell viability assay). The cell density in cells/cm^2 would correspond to cell number divided by the area of one well of a 96-well plate (0.32 cm^2). […]
After 3 days of incubation, the growth media were removed by aspiration and 60 μL of diluted CellTiter-Glo® reagent (10 μL CellTiter-Glo® reagent+50 μL of PBS) was added to each well. […] Luminescence signals were then acquired on a Synergy Neo2 plate reader (Biotek).
The effect of each compound dilution on the proliferation of cancer cell lines was expressed in % inhibition and calculated as follows. […]
as §7, with “proliferation” for “pERK signal”, “a EC50” for “an IC50”, “effect” for “inhibition”

IC50 ([1]; HCT116, Table D) [nM]	IC50 ([2]; SW480, Table D) [nM]	IC50 [3] [nM]	IC50 ([4]; SK-MEL30) [nM]	IC50 [5] [nM]	EC50 [6] [nM]	Compound	HCT116 pERK % Ymin ([1]; HCT116, Table D) [%]	SW480 pERK % Ymin ([2]; SW480, Table D) [%]	HepG2 pERK % Ymin [3] [%]	SK-MEL30 pERK % Ymin [4] [%]	NCI-H358 pERK % Ymin [5] [%]	also measured
						Cc1ccc2c(Nc3cccc(Cl)c3F)nccc2c1NC(=O)c1csc2c(N)ncnc12 [Belvarafenib, reference compound]	−46	−100	−36	−45	−122	IC50 ([1]; Homo sapiens, HCT-116, HCT116, Table D): 30 to 300 nM; IC50 ([2]; Homo sapiens, SW480, Table D): 30 to 300 nM; IC50 ([3]; Homo sapiens): 30 to 300 nM; IC50 ([4]; Homo sapiens, SK-MEL-30): < 30 nM; IC50 ([5]; Homo sapiens): 30 to 300 nM; EC50 ([6]; Homo sapiens, 72 h): < 30 nM
30 to 300	30 to 300	< 30	< 30	30 to 300	< 30	Nc1cccc2c1ncn2-c1ccc2ncnc(Nc3c(F)ccc(NS(=O)(=O)c4cccc(Cl)c4Cl)c3F)c2n1 [Example 99]	−0.3	−7	7	−1	11	HCT116 pERK Ymin % ([1]; HCT116 cells, Ymin in brackets): −5.4%; IC50 ([1]; HCT116 cells, class symbol before the bracket): < 500 nM; YMIN of pERK IC50 dose response curve (paradoxical induction of pERK signaling) ([1]; RAS-mutant HCT116 cells, FIG. 1): > −20%; SW480 pERK Ymin % ([2]; SW480 cells, Ymin in brackets): −0.3%; IC50 ([2]; SW480 cells, class symbol before the bracket): < 500 nM
30 to 300	30 to 300	30 to 300	< 30	30 to 300	< 30	CC1(O)CCN(c2cccc3c2ncn3-c2ccc3ncnc(Nc4c(F)ccc(NS(=O)(=O)c5cccc(Cl)c5Cl)c4F)c3n2)CC1 [Example 524]	−3	0	2	−13	−13	IC50 ([1]; HCT116 cells, class symbol): < 500 nM; IC50 ([2]; SW480 cells, class symbol): < 500 nM
